{"source": "paper PMC5161551", "about": "(Nature chemical biology, 2016)", "key": {"ERα": {"target": "T1, ERα (Mus musculus, UniProt P19785)", "T1 sequence (P19785 1-599)": "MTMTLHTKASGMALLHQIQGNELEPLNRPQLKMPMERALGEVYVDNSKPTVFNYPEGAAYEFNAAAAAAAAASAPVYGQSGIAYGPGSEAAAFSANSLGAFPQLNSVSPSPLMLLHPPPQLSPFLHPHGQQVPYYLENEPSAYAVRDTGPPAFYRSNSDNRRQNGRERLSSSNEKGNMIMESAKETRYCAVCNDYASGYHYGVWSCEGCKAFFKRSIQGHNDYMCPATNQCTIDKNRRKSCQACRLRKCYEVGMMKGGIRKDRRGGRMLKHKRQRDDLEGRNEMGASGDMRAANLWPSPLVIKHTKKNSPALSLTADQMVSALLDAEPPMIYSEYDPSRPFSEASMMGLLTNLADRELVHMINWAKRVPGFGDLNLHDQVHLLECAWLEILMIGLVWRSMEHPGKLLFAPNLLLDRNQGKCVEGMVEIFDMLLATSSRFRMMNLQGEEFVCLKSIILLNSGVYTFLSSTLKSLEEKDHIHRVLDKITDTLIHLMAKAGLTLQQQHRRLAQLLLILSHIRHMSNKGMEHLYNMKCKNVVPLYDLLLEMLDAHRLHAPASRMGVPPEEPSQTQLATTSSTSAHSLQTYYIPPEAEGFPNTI", "experiment": "ERα+ cells in mouse uterus", "format": "in vivo", "details": "mouse uterine tissue after the uterotrophic assay"}, "[1]": {"tested_on": "uterus of ovariectomized mice", "experiment": "Mouse uterotrophic assay", "format": "in vivo", "details": "240 μg in combination with E2 (10 ng), sc, 4 days"}, "IL-6": {"tested_on": "IL-6", "experiment": "TNFα-induced IL-6 secretion in MCF-7 cells", "format": "cell-based, human", "details": "MCF-7, 10 ng/ml TNFα, ligand 10 μM, 24 hr"}, "[2]": {"tested_on": "complement component C3, lactoferrin, and aquaporin 5", "experiment": "Uterine expression of E2-regulated genes", "format": "in vivo, mouse", "details": "ovariectomized mice, 4 days"}}}
{"smiles": "C[C@]12CC[C@@H]3c4ccc(O)cc4C[C@@H](CCCCCCCCC[S+]([O-])CCCC(F)(F)C(F)(F)F)[C@H]3[C@@H]1CC[C@@H]2O", "note": "(some centres unmarked) [fulvestrant]", "values": [{"measurement": "ERα expression in uterus (ERα+ cells)", "setting": "ERα", "result": "robustly inhibited ERα expression"}, {"measurement": "effect on E2-stimulated uterine growth", "setting": "[1]", "result": "significantly reduced the E2-stimulated uterine growth"}, {"measurement": "inhibition of TNFα-induced IL-6 secretion", "setting": "IL-6", "result": "did not inhibit IL-6 secretion"}, {"measurement": "effect on E2-stimulated expression of genes in uterus", "setting": "[2]; 240 μg in combination with E2 (10 ng)", "result": "markedly reduced the E2-stimulated expression levels of these genes"}, {"measurement": "expression of E2-induced genes in uterus (compound alone)", "setting": "[2]; 240 μg", "result": "failed to increase the expression of E2-induced genes"}]}
